{"source": "patent US20240269120A1", "about": "“Method for Treating an Autoimmune and Inflammatory Disease” (Cellestia Biotech AG, priority 2021, published 2024)", "key": {"[1]": {"system": "Treg cells (CD4+CD25highFOXP3+)", "test": "In vivo dosing of C57BL6 mice, Treg cells in spleen", "set-up": "species or system mouse", "conditions": "C57BL6 wild type mice, 60 mg/kg QD", "protocol": "C57BL6 wild type mice were treated with 6-(4-tert-butylphenoxy)pyridin-3-amine at 60 mg/kg dose (QD). […] (*) p<0.05. Each bar represents the mean±SEM (N=3 replicates).\n(§1) In vivo treatment of mice and pharmacodynamic response: Mice experiments were performed in compliance with authorization to perform animal experiments (VD3323). Briefly, 6-8 weeks old wild type C57Bl6 mice were subcutaneously or intraperitoneally dosed with vehicle or compounds for different durations. Mice were sacrificed, spleens were harvested 24 hours post-last dosing. Splenocytes were analyzed for cell surface and intracellular markers expression using flow cytometry. RNA expression analyses were performed using quantitative real time PCR.\nFlow cytometry analysis: Flow cytometry analysis was performed to quantify cell surface and intracellular markers expression and measure cell division index."}, "IL-10 mRNA": {"system": "IL-10 mRNA", "test": "Quantitative RT-PCR of splenocyte mRNA after in vivo dosing: IL-10", "set-up": "species or system mouse", "conditions": "in vivo treated mice vs vehicle; p<0.05; FIG. 3", "protocol": "FIG. 3: In vivo 6-(4-tert-butylphenoxy)pyridin-3-amine dosing leads to an upregulation of anti-inflammatory cytokine IL-10 mRNA in mouse spleen. […] Each bar represents the mean±SD (N=3 replicates). (*) p<0.05\nas §1"}, "IL-17": {"system": "IL-17", "test": "ELISA of supernatant from activated human PBMC cultures: IL-17", "format": "cell-based", "conditions": "control 0%", "protocol": "Human PBMCs and mouse splenocyte in vitro stimulation and treatment: Human peripheral blood mononuclear cells (PBMCs) and mouse splenocytes from donors were stimulated in vitro with anti-CD3 and anti-CD28 antibodies. The stimulated cells were simultaneously treated with compounds for 96 hours. The T cells were profiled for different cell surface and intracellular markers and proliferation by flow cytometry.\nELISA assay: Supernatant from activated human PBMC cultures described above was separated from cells at the end of culture time. Key cytokines (IL-6, IFN-γ, IL-17) were quantified using sandwich ELISA reagents set (Diaclone) following manufacturer's instruction manual."}, "IL-10": {"system": "IL-10", "test": "Cytokine profiling in human patient plasma (MSD): IL-10", "format": "in vivo", "conditions": "vs baseline", "protocol": "Cytokine profiling in human plasma samples: Plasma samples from patients treated with 6-(4-tert-butylphenoxy)pyridin-3-amine were collected and stored at −80° C. until analysed. Cytokine and chemokine profiling was performed using MesoScale Discovery (MSD) platform and three assay panels: 1) Pro-inflammatory panel human, 2) Human IL-6 assay S-Plex, 3) Human IL-10 assay S-Plex."}, "[2]": {"system": "NSG mice injected with human PBMCs (GvHD)", "test": "Humanized GvHD mouse model, ex vivo treated human PBMCs, no in vivo treatment", "set-up": "GvHD clinical score: Body weight loss: dose or concentration left out as unconfirmed", "conditions": "day 21", "protocol": "(§2) Humanized GvHD mouse model: 6-8 weeks old NSG mice were intraperitoneally injected with 10 million human peripheral blood mononuclear cells (PBMCs) as below:\nEx vivo treatment of PBMCs: 10 million human PBMCs from healthy donor #1 were ex-vivo treated with DMSO and […] of 6-(4-tert-butylphenoxy)pyridin-3-amine for 6 hours. Ex-vivo treated PBMCs were intraperitoneally injected into mice (10 million per mouse). 10 NSG mice were injected with DMSO pre-treated PBMCs and 10 NSG mice were injected with 6-(4-tert-butylphenoxy)pyridin-3-amine pre-treated PBMCS. Following PBMC injections mice were monitored for up to 42 days for symptoms of GvHD development as measured by standardized GvHD clinical score system. No in-vivo drug treatment was administered.\n(§3) A cumulative GvHD clinical score was calculated by addition of scores for individual parameters (e.g. cumulative score=BWL+posture+activity+fur texture+skin integrity+paleness)."}, "[3]": {"system": "NSG mice injected with human PBMCs (GvHD)", "test": "Humanized GvHD mouse model, ex vivo pre-treated PBMCs plus in vivo treatment", "conditions": "sum of individual scores; label = ex vivo PBMC treatment/in vivo treatment; DMSO/Vehicle 7.8", "protocol": "as §2, §3\nEx-vivo pre-treatment of PBMCs and in-vivo treatment of mice: Human PBMCs were ex-vivo treated with either DMSO or 6-(4-tert-butylphenoxy)pyridin-3-amine and then intraperitoneally injected into NSG mice. Mice were in vivo treated with different compounds as below: • i. DMSO ex vivo hPBMCs treatment (7 hrs), plus vehicle in vivo treatment • ii. DMSO ex vivo hPBMCs treatment (7 hrs), plus 6-(4-tert-butylphenoxy)pyridin-3-amine in vivo treatment for 3 days • iii. 6-(4-tert-butylphenoxy)pyridin-3-amine ex vivo hPBMCs treatment (7 hrs), plus 6-(4-tert-butylphenoxy)pyridin-3-amine in vivo treatment for 3 days • iv. DMSO ex vivo PBMCs treatment (7 hrs) plus Ruxolitinib in vivo treatment for 3 days • v. 6-(4-tert-butylphenoxy)pyridin-3-amine ex vivo hPBMCs treatment (7 hrs), plus Ruxolitinib in vivo treatment for 3 days\nFollowing PBMC injections, mice were treated with vehicle or 6-(4-tert-butylphenoxy)pyridin-3-amine or Ruxolitinib starting at day 0. Mice were monitored from 60-85 days for symptoms of GvHD and scored according to a standard clinical scoring system for GvHD (Naserian et al., 2018) (see table 1) and a cumulative clinical score was obtained by addition of clinical score for individual parameters. A maximum score of 6 is measured when reaching endpoint. Cell proliferation assay: The effect of compounds on T cell proliferation was quantified using Cell trace violet (CTV). PBMCs/splenocytes were incubated with CTV for 20 minutes at 37° C. Cells were washed twice with RPMI complete medium. CTV labelled cells were stimulated with anti-CD3 and anti-CD28 antibodies and treated with control or compounds and cultured at 37° C. for 96 hours. The cell division index was measured by flow cytometry."}, "IL-6": {"system": "IL-6", "test": "Cytokine analysis in allogeneic bone marrow transplant (LEGENDplex): IL-6", "format": "in vivo, mouse", "conditions": "allo-BM+splenocyte transplanted mice, day 36, vs vehicle; FIG. 6", "protocol": "Allogeneic Bone marrow transplant: Recipient Balb/c mice were irradiated twice 3.75Gy (T=0 and T=4 h) in an X-ray source irradiator before transplantation at T=8 h. Treatment with antibiotics (Nopil) and analgesic (Dafalgan) was supplemented to drinking water 4 days before injection. Irradiated recipient Balb/c mice were transplanted with 5 million T cell depleted bone marrow+1 million splenocytes. Allogeneic recipient animals were treated with vehicle or 6-(4-tert-butylphenoxy)pyridin-3-amine subcutaneously at 20 mg/kg for two days immediately after allo-BM transplant, given a 10 days treatment holiday to recover body weight loss due to whole body irradiation and then treatment continued at 20 mg/kg. […] Animals were monitored for symptoms of GvHD development (severe body weight loss, alopecia and diarrhea.\nCytokine analysis in allogeneic Bone marrow transplant: The recipient animals were bled on day 36 and blood plasma was extracted to determine inflammatory cytokine concentration (IFNγ, IL-6, IL-17a) by LEGENDplex™ multiplexed assay."}, "[4]": {"conditions": "PBMCs pre-treated ex-vivo, DMSO group 0.71"}}, "note": "Several values for one entry are separate records, joined by “and”; a condition that tells them apart may be missing. Identical values can stand only once.", "data": [{"smiles": "CC(C)(C)c1ccc(Oc2ccc(N)cn2)cc1", "note": "[6-(4-tert-butylphenoxy)pyridin-3-amine]", "values": [{"measurement": "Treg cells (CD4+CD25highFOXP3+) number", "setting": "[1]; p<0.05, FIG. 2a", "result": "significantly increased"}, {"measurement": "Treg cells (CD4+CD25highFOXP3+) frequency", "setting": "[1]; p<0.05, FIG. 2b", "result": "significantly increased"}, {"measurement": "IL-10 transcript in splenocytes", "setting": "IL-10 mRNA", "result": "upregulation"}, {"measurement": "Percentage downregulation of IL-17", "setting": "IL-17", "result": 38, "unit": "%"}, {"measurement": "Percentage upregulation of IL-10 in blood plasma", "setting": "IL-10", "result": 60, "unit": "%"}, {"measurement": "GvHD clinical score: Body weight loss", "setting": "[2]; PBMCs pre-treated ex-vivo (6 hours), DMSO group 1.0", "result": 0}, {"measurement": "GvHD clinical score: Skin integrity", "setting": "[2]; PBMCs pre-treated ex-vivo, DMSO group 0.14", "result": 0}, {"measurement": "GvHD clinical score: Fur texture", "setting": "[2]; PBMCs pre-treated ex-vivo, DMSO group 0.57", "result": 0.14}, {"measurement": "GvHD clinical score: Activity score", "setting": "[2]; [4]", "result": 0.14}, {"measurement": "GvHD clinical score: Paleness", "setting": "[2]; [4]", "result": 0}, {"measurement": "GvHD clinical score: Posture", "setting": "[2]; [4]", "result": 0.14}, {"measurement": "Cumulative GvHD score", "setting": "[2]; sum of individual scores, DMSO group 3.84", "result": "decreased cumulative GvHD score significantly and 0.42"}, {"measurement": "Cumulative GvHD score", "setting": "[3]", "result": "decreased cumulative GvHD score significantly"}, {"measurement": "IL-6 in blood plasma", "setting": "IL-6", "result": "downregulation"}]}]}
